Values quoted from earlier work as cited in US20090012066A1, “Method of Use of Deacetylase Inhibitors” (Novartis AG, priority 2005, published 2009).

How the values were obtained:
[1] = tested on: cardiac hypertrophy in transgenic mice that over-express Hop; conditions: transgenic mice over-expressing Hop; Kook et al. 2003
[2] = tested on: hypertrophy induced by infusion of isoproterenol

In the case of CC(/C=C/C(=O)NO)=C\[C@@H](C)C(=O)c1ccc(N(C)C)cc1 [trichostatin A], the “effect on cardiac hypertrophy” value [1] is listed as “prevents cardiac hypertrophy” and the “effect on hypertrophy induced by infusion of isoproterenol” value [2] is listed as “attenuates hypertrophy”.
